Experiments:
[1] = molecular target: T1, full-length HAQ STING (Homo sapiens, UniProt Q86WV6, G230A/H232R/R293Q/R71H); assay: 3H-cGAMP filtration binding assay (HAQ STING); conditions: for EC50: competition with tritiated cGAMP ligand, HAQ STING membrane
T1 construct: made in house; host or cells: Trichoplusia ni (Hi-Five) insect cells, baculovirus; crude membrane preparation
Description: The ability of compounds to bind STING is quantified by the ability to compete with tritiated cGAMP ligand for human STING receptor membrane using a radioactive filter-binding assay. The binding assay employs STING receptor obtained from Hi-Five cell membranes overexpressing full-length HAQ STING prepared in-house and tritiated cGAMP ligand also purified in-house.
The ability of compounds to bind STING is quantified by their ability to compete with tritiated cGAMP ligand for human STING receptor membrane using a radioactive filter-binding assay. The binding assay employs STING receptor obtained from Trichoplusia ni cell membranes (T. ni; Expression Systems, cat #94-002F, www.expressionsystems.com) overexpressing full-length HAQ STING and tritiated cGAMP ligand.
The basic HAQ STING filtration assay protocol is as follows:
The compounds were serially titrated by the Hamilton STARPlus CORE in a 96-well plate (Greiner, #651201) using a 1:3 ten-point dose response format. After compound preparation, a 2.2 ug/ml working concentration of STING membrane (SEQ. ID. No. 1) was prepared by diluting concentrated membrane into assay buffer (lx PBS; Invitrogen #SH30028.02) and douncing 7× using a manual tissue homogenizer (Wheaton, #357546). 148 uL of prepared membrane was then manually added to each well of a 96-well deep-well polypropylene plate (Fisher Scientific, #12-566-121). Following membrane addition, 2 uL of either titrated test compound, DMSO control (Sigma #276855), or cold cGAMP control was added to the appropriate wells using a BIOMEK FX. Compound and membrane then preincubated for 60 min at RT to allow compound binding to equilibrate. Following equilibration, 8 nM of [^3H] c-GAMP ligand was prepared by diluting into assay buffer, and 50 uL of this working stock was then manually added to each well of the assay plate. Plates were then incubated at RT for 60 min, and the contents of each assay plate were then filtered through a 96-well GF/B filter plate (PerkinElmer, #6005250) using a TOMTEC MACH III Cell Harvester equipped with 20 mM HEPES buffer (Fisher Scientific, #BP299500). The filter plates were then dried at 55° C. for 30 min using a pressurized oven before 30 uL of ULTIMA GOLD F scintillate was added to each well. Tritium levels for each reaction well were then measured using a PerkinElmer TopCount plate reader.
After normalization to controls, the percent activity for each compound concentration was calculated by measuring the amount of remaining radioactivity. The plot of percent activity versus the log of compound concentration was fit with a 4-parameter dose response equation to calculate EC50 values.

[2] = test system: IFN-β secretion in THP1 cells; assay: IFN-β secretion in THP1 cell culture (5 h); type: cell-based; conditions: Homo sapiens, THP-1, 5 h, 30 μM compound, cGAMP at 30 μM set at 100%, read-out: % Effect at 30 μM relative to 2′3′-cGAMP
Protocol: The ability of compounds to stimulate the secretion of interferon-beta from THP1 cells was measured using a human IFN-β AlphaLISA kit (Perkin Elmer, Cat. No. AL265F). The basic protocol is as follows:
A Labcyte Echo 550 acoustic dispenser was used to transfer 120 nL of compound dissolved in DMSO into the wells of an empty, sterile 384-well microplate, (Corning, Cat. No. 3712). THP1 cells (American Type Culture Collection, Cat. No. TIB202) previously frozen in Recovery Medium (Life Technologies, Cat. No. 12648-010) were thawed and immediately diluted 10-fold into 37° C. assay medium (RPMI 1640+L-Glutamine & phenol red, Life Technologies, Cat. No. 11875-085; 0.5% heat inactivated fetal bovine serum, Sigma Aldrich, Cat. No. F4135; 1 mM Sodium Pyruvate, Life Technologies, Cat. No. 11360-070; lx non-essential amino acids; Life Technologies, Cat. No. 11140-050). The cell viability and count was ascertained using a Beckman Coulter V-Cell XR cell counter. The cells suspension was centrifuged at 200×g for 5 min at RT. Cells were resuspended to a density of 0.8×10^6/mL in 37° C. assay medium. Subsequent liquid transfers were performed using either a Matrix electronic multichannel pipette or an Agilent Bravo Automated Liquid Handling Platform.
The assay was started by dispensing 404, of the previously prepared cell suspension into the wells of the plate containing compounds. After 5 h incubation at 37° C., 5% CO2 in a humidified atmosphere, the plate of cells and compounds was centrifuged at 200×g for 5 min at RT. From each well, 54, of supernatant was transferred into corresponding wells of a white 384-well plate (Perkin Elmer, Cat. No. 6005620). To these supernatant-containing wells was added 10 μL of 5× Anti-Analyte Acceptor beads (50 μg/mL of AlphaLISA HiBlock Buffer) and incubated for 30 min at RT while shaking on an orbital plate shaker. To each well was added 104, of 5× Biotinylated Antibody Anti-analyte (5 nM in AlphaLISA HiBlock Buffer) and incubated on an orbital plate shaker for 60 min at RT or overnight at 4° C. To each well was added 254, of 2× SA-Donor beads (80 μg/mL in AlphaLISA HiBlock Buffer) and incubated for 30-45 min at RT in the dark while shaking on an orbital plate shaker. The plate was then read on a Perkin Elmer Envision (λex=680 nm, λem=[…]). The percent effect of the AlphaLISA signal at each compound concentration was calculated based on 30 uM cGAMP positive controls and 0.3% DMSO negative controls. The plot of percent effect versus the log of compound concentration was fit with a 4-parameter concentration response equation to calculate EC50 values. The test compounds were tested at concentrations 30000, 10000, 3333, 1111, 370.4, 123.4, 41.2, 13.7, 4.6, and 1.5 nM with 0.3% residual DMSO. The control compound, cGAMP was tested at concentrations 100000, 33333, 11111, 3704, 1235, 412, 137, 46, and 15 nM with 0.3% residual DMSO.

T1 sequence (Q86WV6 with tags, fused parts or gaps R71H/G230A/H232R/R293Q): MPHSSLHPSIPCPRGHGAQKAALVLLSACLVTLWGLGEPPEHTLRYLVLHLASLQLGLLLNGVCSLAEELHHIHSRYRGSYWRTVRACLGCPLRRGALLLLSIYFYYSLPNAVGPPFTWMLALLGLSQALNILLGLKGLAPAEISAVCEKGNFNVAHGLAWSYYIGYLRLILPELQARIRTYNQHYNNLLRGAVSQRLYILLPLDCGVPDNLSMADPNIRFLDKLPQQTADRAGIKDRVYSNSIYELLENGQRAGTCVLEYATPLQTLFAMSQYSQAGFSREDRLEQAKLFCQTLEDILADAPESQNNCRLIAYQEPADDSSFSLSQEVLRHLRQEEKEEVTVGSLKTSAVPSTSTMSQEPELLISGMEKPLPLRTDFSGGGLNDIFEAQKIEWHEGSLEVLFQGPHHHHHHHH

SMILES	EC50 [1] [µM]	percent reduction in binding of tritiated cGAMP at top concentration ([1]; at 20,000 nM (20 uM) compound, HAQ STING)	activation at 30 µM [2] [%]
COc1cc2nc(C(=O)CC(C)C(=O)O)sc2cc1OC (single isomer, unassigned) [Example 2, 4-(5,6-Dimethoxy-1,3-benzothiazol-2-yl)-2-methyl-4-oxobutanoic Acid]	3.29	–	94
COc1cc2sc(C(=O)CC(C)C(=O)O)cc2nc1OC (single isomer, unassigned) [Example 7, (R or S)-4-(5,6-Dimethoxythieno[3,2-b]pyridin-2-yl)-2-methyl-4-oxobutanoic acid]	8.76	–	55
COc1cc2sc(C(=O)CC(C)C(=O)O)cc2nc1OC (single isomer, unassigned) [Example 8, (R or S)-4-(5,6-Dimethoxythieno[3,2-b]pyridin-2-yl)-2-methyl-4-oxobutanoic acid]	1.54	–	–
COc1cc2sc(C(=O)[C@H]3C[C@H]3C(=O)O)cc2nc1OC (single isomer, unassigned) [Example 9, Cis-2-(5,6-dimethoxythieno[3,2-b]pyridine-2-carbonyl)cyclopropane-1-carboxylic Acid]	1.15	–	100
CCCC(CC(=O)c1cc2nc(OC)c(OC)cc2s1)C(=O)O (single isomer, unassigned) [Example 13, (R or S)-2-(2-(5,6-Dimethoxythieno[3,2-b]pyridin-2-yl)-2-oxoethyl) pentanoic acid]	–	7% @ 20,000	–
COc1cc2nc(C(=O)CCC(=O)O)sc2cc1OC [Example 1, 4-(5,6-Dimethoxybenzo[d]thiazol-2-yl)-4-oxobutanoic Acid]	13.3	–	56
COc1cc2sc(C(=O)C[C@H](C)C(=O)O)nc2cc1Br [Example 3, (S)-4-(5-Bromo-6-methoxybenzo[d]thiazol-2-yl)-2-methyl-4-oxobutanoic Acid]	10.6	–	11
COc1cc2sc(C(=O)CC(C)C(=O)O)nc2c(F)c1OC (stereo not drawn) [Example 4, 4-(4-Fluoro-5,6-dimethoxybenzo[d]thiazol-2-yl)-2-methyl-4-oxobutanoic Acid]	6.79	–	19
COc1cc2cc(C(=O)CCC(=O)O)sc2nc1OC [Example 5, 4-(5,6-Dimethoxythieno[2,3-b]pyridin-2-yl)-4-oxobutanoic Acid]	5.51	–	146
COc1cc2sc(C(=O)CCC(=O)O)cc2nc1OC [Example 6]	2.44	–	107
COc1cc2sc(C(=O)C[C@H](C)C(=O)O)cc2nc1Cl [Example 10, (S)-4-(5-Chloro-6-methoxythieno[3,2-b]pyridin-2-yl)-2-methyl-4-oxobutanoic Acid]	0.637	–	70
COc1nc2cc(C(=O)CCC(=O)O)sc2cc1Br [Example 15, 4-(6-Bromo-5-methoxythieno[3,2-b]pyridin-2-yl)-4-oxobutanoic Acid]	2.45	–	142
COc1cc2sc(C(=O)C[C@H](C)C(=O)O)nc2nc1OC [Example 19, (S)-4-(5,6-Dimethoxythiazolo[4,5-b]pyridin-2-yl)-2-methyl-4-oxobutanoic Acid]	10.1	–	14

More lines, main results first:

EC50 [1] [µM]	percent reduction in binding of tritiated cGAMP at top concentration ([1]; at 20,000 nM (20 uM) compound, HAQ STING)	SMILES	activation at 30 µM [2] [%]
17.3	–	CCC(CC(=O)c1cc2nc(OC)c(OC)cc2s1)C(=O)O (single isomer, unassigned) [Example 11, (R or S)-4-(5,6-Dimethoxythieno[3,2-b]pyridin-2-yl)-2-ethyl-4-oxobutanoic acid]	–
1.75	–	CCC(CC(=O)c1cc2nc(OC)c(OC)cc2s1)C(=O)O (single isomer, unassigned) [Example 12, (R or S)-4-(5,6-Dimethoxythieno[3,2-b]pyridin-2-yl)-2-ethyl-4-oxobutanoic acid]	–
1.39	–	CCCC(CC(=O)c1cc2nc(OC)c(OC)cc2s1)C(=O)O (single isomer, unassigned) [Example 14, (R or S)-2-(2-(5,6-Dimethoxythieno[3,2-b]pyridin-2-yl)-2-oxoethyl) pentanoic acid]	–
2.71	–	CCC(CC(=O)c1cc2nc(OC)c(OC)nc2s1)C(=O)O (single isomer, unassigned) [Example 17, (R or S)-4-(2,3-Dimethoxythieno[2,3-b]pyrazin-6-yl)-2-ethyl-4-oxobutanoic Acid]	116
4.5	–	COc1nc2cc(C(=O)CC(C)C(=O)O)sc2nc1OC (single isomer, unassigned) [Example 18, (R or S)-4-(2,3-Dimethoxythieno[2,3-b]pyrazin-6-yl)-2-methyl-4-oxobutanoic Acid]	77
9.57	–	COc1nc2cc(C(=O)CCC(=O)O)sc2nc1OC [Example 16, 4-(2,3-Dimethoxythieno[2,3-b]pyrazin-6-yl)-4-oxobutanoic Acid]	108
